Columns and labels:
[1] = system: SNU-16; test: Cytotoxicity against human stomach cancer cell line SNU-16 in MTT assay; type: functional, cell-based
[2] = system: PC-9; test: Cytotoxicity against human non-small cell lung cancer cell line PC-9 in MTT assay; type: functional, cell-based
[3] = system: L1210; test: In vitro cytotoxicity against cisplatin resistance L1210 murine leukemia cell line; type: functional, cell-based, Mus musculus
[4] = system: SNU-5; test: Cytotoxicity against human stomach cancer cell line SNU-5 in MTT assay; type: functional, cell-based
[5] = system: L1210; test: In vitro cytotoxicity against cisplatin sensitive L1210 murine leukemia cell line; type: functional, cell-based, Mus musculus
[6] = system: PC-14; test: Cytotoxicity against human non-small cell lung cancer cell line PC-14 in MTT assay; type: functional, cell-based
[7] = system: SNU1; test: Cytotoxicity against human stomach cancer cell line SNU-1 in MTT assay; type: functional, cell-based
[8] = system: L1210; test: Ratio of the cytotoxicity against cisplatin resistance L1210 to parent (sensitive) cell lines; type: functional, cell-based

Row | Sequence | IC50 [1] | IC50 [2] | IC50 [3] | IC50 [4] | IC50 [5] | IC50 [6] | IC50 [7] | Ratio [8]
1 | CARBOPLATIN [listing 1 of 2 here] | 13.7 µM | 21.8 µM | 44.2 µM | 9.16 µM | 1830 nM | 15.6 µM | 20.1 µM | –
2 | CISPLATIN [listing 1 of 2 here] | 5 µM | 1 µM | 3.27 µM | 1 µM | 100 nM | 1.33 µM | 2.67 µM | –
3 | CISPLATIN [listing 2 of 2 here] | – | – | – | – | – | – | – | 3.24
4 | CARBOPLATIN [listing 2 of 2 here] | – | – | – | – | – | – | – | 24.1
